Data as given in ChEMBL document CHEMBL2074235, “Transporter-mediated Drug Interactions” (Drug Metabol Pharmacokin, 2002).

Each compound was assayed against T1, Solute carrier family 15 member 1 (Homo sapiens) (UniProt P46059) (assay: TP_TRANSPORTER: uptake in Xenopus laevis oocytes). Conditions: Oocyte.
T1 sequence (whole entry): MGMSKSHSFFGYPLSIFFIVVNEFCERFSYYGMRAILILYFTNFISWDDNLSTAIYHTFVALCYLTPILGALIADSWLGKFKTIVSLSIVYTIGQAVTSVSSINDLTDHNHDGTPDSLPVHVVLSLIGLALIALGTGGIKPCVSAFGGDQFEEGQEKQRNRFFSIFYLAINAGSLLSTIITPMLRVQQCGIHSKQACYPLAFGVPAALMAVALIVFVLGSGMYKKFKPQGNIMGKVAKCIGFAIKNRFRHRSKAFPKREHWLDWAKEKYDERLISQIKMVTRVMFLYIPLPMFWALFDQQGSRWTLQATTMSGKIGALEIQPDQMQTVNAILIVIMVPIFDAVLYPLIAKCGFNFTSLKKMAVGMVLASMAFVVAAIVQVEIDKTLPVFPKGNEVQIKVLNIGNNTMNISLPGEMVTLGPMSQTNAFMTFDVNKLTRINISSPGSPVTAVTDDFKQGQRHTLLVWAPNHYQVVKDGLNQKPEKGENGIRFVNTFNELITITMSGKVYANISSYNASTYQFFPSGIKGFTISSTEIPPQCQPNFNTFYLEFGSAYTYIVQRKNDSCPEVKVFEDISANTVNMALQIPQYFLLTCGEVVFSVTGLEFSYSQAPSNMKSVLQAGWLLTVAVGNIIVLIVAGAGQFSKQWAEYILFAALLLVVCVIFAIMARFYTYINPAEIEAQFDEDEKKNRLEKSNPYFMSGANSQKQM
Assay type: functional, cell-based
`Nc1nc(/C(=C/CC(=O)O)C(=O)N[C@@H]2C(=O)N3C(C(=O)O)=CCS[C@H]23)cs1` was tested, and the Activity was “substrate [+]”. In the case of `NCCCC[C@H](N[C@@H](CCc1ccccc1)C(=O)O)C(=O)N1CCC[C@H]1C(=O)O`, the Activity is reported as “is not a substrate [-]”. In the case of `C=CC1=C(C(=O)O)N2C(=O)[C@@H](NC(=O)/C(=N\O)c3csc(N)n3)[C@H]2SC1`, the Activity is reported as “substrate [+]”. `CCOC(=O)[C@H](CCc1ccccc1)N[C@H]1CS[C@H](c2cccs2)CN(CC(=O)O)C1=O` was tested, and the Activity was “substrate [+]”. With `CCOC(=O)[C@H](CCc1ccccc1)N[C@@H](C)C(=O)N1CCC[C@H]1C(=O)O` the Activity was “substrate [+]”. In the case of `C[C@@H](O)[C@H]1C(=O)N2C(C(=O)O)=C([C@H]3CCCO3)S[C@H]12`, the Activity is reported as “is not a substrate [-]”. `O=C(O)CO/N=C(\C(=O)N[C@@H]1C(=O)N2C(C(=O)O)=CCS[C@H]12)c1cscn1` was tested, and the Activity was “substrate [+]”. For `CO/N=C(\C(=O)N[C@@H]1C(=O)N2C(C(=O)O)=CCS[C@H]12)c1csc(N)n1`, the Activity was “is not a substrate [-]”. For `CC1(C)S[C@@H]2[C@H](NC(=O)Cc3ccccc3)C(=O)N2[C@H]1C(=O)O`, the Activity was “substrate [+]”. With `C=CC1=C(C(=O)O)N2C(=O)[C@@H](NC(=O)/C(=N\OCC(=O)O)c3csc(N)n3)[C@H]2SC1` the Activity was “substrate [+]”. `C[C@H](N[C@@H](CCc1ccccc1)C(=O)O)C(=O)N1CCC[C@H]1C(=O)O` was tested, and the Activity was “substrate [+]”. For `NCCC(=O)N[C@@H](Cc1c[nH]cn1)C(=O)O`, the Activity was “substrate [+]”. In the case of `CC1=C(C(=O)O)N2C(=O)[C@@H](NC(=O)[C@H](N)c3ccc(O)cc3)[C@H]2SC1`, the Activity is reported as “substrate [+]”. `O=C(O)CN1C[C@@H](c2cccs2)SC[C@H](N[C@@H](CCc2ccccc2)C(=O)O)C1=O` was tested, and the Activity was “substrate [+]”.
